Test results as given in ChEMBL document CHEMBL5724914, “Linking interpersonal differences in gut microbiota composition and drug biotransformation activity” (2024).

Test: (§1) The drug is tested on Z-029 corresponding to rat gut metagenome with ENA study accession number: PRJEB37062 and ENA sample accession number: ERS12561828 for biotransformation under anaerobic condition. The drug concentrations were measured over 9 timepoints collected between 0 and 24 hours of incubation by liquid-chromatography-coupled mass spectrometry (LC–MS)
Conditions: 2 µM
Note: call rule not given here.

Which “Bacterial Biotransformation” value does the source give for `CC(C)(C)NCC(O)c1cc(Cl)c(N)c(Cl)c1` (stereo not given) [CLENBUTEROL] here?
The value was “Compound NOT metabolized”.

Which “Bacterial Biotransformation” value does the source give for `C[N+]12CCC(CC1)C(OC(=O)C(O)(c1ccccc1)c1ccccc1)C2.[Br-]` (stereo not given) [CLIDINIUM BROMIDE] here?
Its value is “Compound NOT metabolized”.

Test: as §1, with “Z-027” for “Z-029”, “to” for “to rat gut”, “ERS12561826” for “ERS12561828”
Conditions: 2 µM

Which “Bacterial Biotransformation” value does the source give for `CC(C)(C)NCC(O)c1cc(Cl)c(N)c(Cl)c1` (stereo not given) [CLENBUTEROL] here?
Its value is “Compound NOT metabolized”.

Which “Bacterial Biotransformation” value does the source give for `C[N+]12CCC(CC1)C(OC(=O)C(O)(c1ccccc1)c1ccccc1)C2.[Br-]` (stereo not given) [CLIDINIUM BROMIDE] here?
Its value is “Compound NOT metabolized”.

Test: as §1, with “on Z-024” for “on Z-029”, “to pig” for “to rat”, “number: ERS12561823” for “number: ERS12561828”
Conditions: 2 µM

For `CC(C)(C)NCC(O)c1cc(Cl)c(N)c(Cl)c1` (stereo not given) [CLENBUTEROL], which “Bacterial Biotransformation” value is on record?
Its value is “Compound NOT metabolized”.

With `C[N+]12CCC(CC1)C(OC(=O)C(O)(c1ccccc1)c1ccccc1)C2.[Br-]` (stereo not given) [CLIDINIUM BROMIDE] as the compound, how does the “Bacterial Biotransformation” value read?
Its value is “Compound metabolized”.

Test: as §1, with “on Z-016” for “on Z-029”, “to mouse” for “to rat”, “number: ERS12561815” for “number: ERS12561828”
Conditions: 2 µM

With `CC(C)(C)NCC(O)c1cc(Cl)c(N)c(Cl)c1` (stereo not given) [CLENBUTEROL] as the compound, how does the “Bacterial Biotransformation” value read?
The value was “Compound NOT metabolized”.

For `C[N+]12CCC(CC1)C(OC(=O)C(O)(c1ccccc1)c1ccccc1)C2.[Br-]` (stereo not given) [CLIDINIUM BROMIDE], which “Bacterial Biotransformation” value is on record?
Its value is “Compound NOT metabolized”.

Test: as §1, with “Z-012” for “Z-029”, “to” for “to rat gut”, “ERS12561812” for “ERS12561828”
Conditions: 2 µM

With `CC(C)(C)NCC(O)c1cc(Cl)c(N)c(Cl)c1` (stereo not given) [CLENBUTEROL] as the compound, how does the “Bacterial Biotransformation” value read?
Its value is “Compound NOT metabolized”.

For `C[N+]12CCC(CC1)C(OC(=O)C(O)(c1ccccc1)c1ccccc1)C2.[Br-]` (stereo not given) [CLIDINIUM BROMIDE], which “Bacterial Biotransformation” value is on record?
The value was “Compound NOT metabolized”.

Test: as §1, with “on Z-011” for “on Z-029”, “to mouse” for “to rat”, “number: ERS12561811” for “number: ERS12561828”
Conditions: 2 µM

With `CC(C)(C)NCC(O)c1cc(Cl)c(N)c(Cl)c1` (stereo not given) [CLENBUTEROL] as the compound, how does the “Bacterial Biotransformation” value read?
The value was “Compound NOT metabolized”.

Which “Bacterial Biotransformation” value does the source give for `C[N+]12CCC(CC1)C(OC(=O)C(O)(c1ccccc1)c1ccccc1)C2.[Br-]` (stereo not given) [CLIDINIUM BROMIDE] here?
The value was “Compound NOT metabolized”.

Test: as §1, with “on Z-002” for “on Z-029”, “to rabbit” for “to rat”, “number: ERS12561802” for “number: ERS12561828”
Conditions: 2 µM

Which “Bacterial Biotransformation” value does the source give for `CC(C)(C)NCC(O)c1cc(Cl)c(N)c(Cl)c1` (stereo not given) [CLENBUTEROL] here?
The value was “Compound NOT metabolized”.

With `C[N+]12CCC(CC1)C(OC(=O)C(O)(c1ccccc1)c1ccccc1)C2.[Br-]` (stereo not given) [CLIDINIUM BROMIDE] as the compound, how does the “Bacterial Biotransformation” value read?
The value was “Compound NOT metabolized”.

Test: as §1, with “on WLS-240” for “on Z-029”, “to human” for “to rat”, “number: ERS12561773” for “number: ERS12561828”
Conditions: 2 µM

For `CC(C)(C)NCC(O)c1cc(Cl)c(N)c(Cl)c1` (stereo not given) [CLENBUTEROL], which “Bacterial Biotransformation” value is on record?
Its value is “Compound NOT metabolized”.

Which “Bacterial Biotransformation” value does the source give for `C[N+]12CCC(CC1)C(OC(=O)C(O)(c1ccccc1)c1ccccc1)C2.[Br-]` (stereo not given) [CLIDINIUM BROMIDE] here?
Its value is “Compound metabolized”.

Test: as §1, with “on WLS-098” for “on Z-029”, “to human” for “to rat”, “number: ERS12561754” for “number: ERS12561828”
Conditions: 2 µM

For `CC(C)(C)NCC(O)c1cc(Cl)c(N)c(Cl)c1` (stereo not given) [CLENBUTEROL], which “Bacterial Biotransformation” value is on record?
Its value is “Compound NOT metabolized”.

For `C[N+]12CCC(CC1)C(OC(=O)C(O)(c1ccccc1)c1ccccc1)C2.[Br-]` (stereo not given) [CLIDINIUM BROMIDE], which “Bacterial Biotransformation” value is on record?
The value was “Compound NOT metabolized”.

Test: as §1, with “on WLS-069” for “on Z-029”, “to human” for “to rat”, “number: ERS12561748” for “number: ERS12561828”
Conditions: 2 µM

Which “Bacterial Biotransformation” value does the source give for `CC(C)(C)NCC(O)c1cc(Cl)c(N)c(Cl)c1` (stereo not given) [CLENBUTEROL] here?
The value was “Compound NOT metabolized”.

Which “Bacterial Biotransformation” value does the source give for `C[N+]12CCC(CC1)C(OC(=O)C(O)(c1ccccc1)c1ccccc1)C2.[Br-]` (stereo not given) [CLIDINIUM BROMIDE] here?
The value was “Compound NOT metabolized”.

Test: as §1, with “on WLS-038” for “on Z-029”, “to human” for “to rat”, “number: ERS12561745” for “number: ERS12561828”
Conditions: 2 µM

Which “Bacterial Biotransformation” value does the source give for `CC(C)(C)NCC(O)c1cc(Cl)c(N)c(Cl)c1` (stereo not given) [CLENBUTEROL] here?
The value was “Compound NOT metabolized”.

For `C[N+]12CCC(CC1)C(OC(=O)C(O)(c1ccccc1)c1ccccc1)C2.[Br-]` (stereo not given) [CLIDINIUM BROMIDE], which “Bacterial Biotransformation” value is on record?
Its value is “Compound NOT metabolized”.

Conditions: human gut metagenome, 24 h, 2 µM

Which “Bacterial Biotransformation” value does the source give for `CC(C)(C)NCC(O)c1cc(Cl)c(N)c(Cl)c1` (stereo not given) [CLENBUTEROL] here?
The value was “Compound NOT metabolized”.

With `C[N+]12CCC(CC1)C(OC(=O)C(O)(c1ccccc1)c1ccccc1)C2.[Br-]` (stereo not given) [CLIDINIUM BROMIDE] as the compound, how does the “Bacterial Biotransformation” value read?
The value was “Compound NOT metabolized”.

Conditions: human gut metagenome, 24 h, 2 µM
Remark: another data set of the same source

Which “Bacterial Biotransformation” value does the source give for `CC(C)(C)NCC(O)c1cc(Cl)c(N)c(Cl)c1` (stereo not given) [CLENBUTEROL] here?
Its value is “Compound NOT metabolized”.

Which “Bacterial Biotransformation” value does the source give for `C[N+]12CCC(CC1)C(OC(=O)C(O)(c1ccccc1)c1ccccc1)C2.[Br-]` (stereo not given) [CLIDINIUM BROMIDE] here?
The value was “Compound NOT metabolized”.

Conditions: human gut metagenome, 24 h, 2 µM
Remark: another data set of the same source

For `CC(C)(C)NCC(O)c1cc(Cl)c(N)c(Cl)c1` (stereo not given) [CLENBUTEROL], which “Bacterial Biotransformation” value is on record?
Its value is “Compound NOT metabolized”.

Which “Bacterial Biotransformation” value does the source give for `C[N+]12CCC(CC1)C(OC(=O)C(O)(c1ccccc1)c1ccccc1)C2.[Br-]` (stereo not given) [CLIDINIUM BROMIDE] here?
Its value is “Compound metabolized”.

Conditions: human gut metagenome, 24 h, 2 µM
Remark: another data set of the same source

Which “Bacterial Biotransformation” value does the source give for `CC(C)(C)NCC(O)c1cc(Cl)c(N)c(Cl)c1` (stereo not given) [CLENBUTEROL] here?
Its value is “Compound NOT metabolized”.

With `C[N+]12CCC(CC1)C(OC(=O)C(O)(c1ccccc1)c1ccccc1)C2.[Br-]` (stereo not given) [CLIDINIUM BROMIDE] as the compound, how does the “Bacterial Biotransformation” value read?
The value was “Compound metabolized”.

Conditions: human gut metagenome, 24 h, 2 µM
Remark: another data set of the same source

With `CC(C)(C)NCC(O)c1cc(Cl)c(N)c(Cl)c1` (stereo not given) [CLENBUTEROL] as the compound, how does the “Bacterial Biotransformation” value read?
The value was “Compound NOT metabolized”.

With `C[N+]12CCC(CC1)C(OC(=O)C(O)(c1ccccc1)c1ccccc1)C2.[Br-]` (stereo not given) [CLIDINIUM BROMIDE] as the compound, how does the “Bacterial Biotransformation” value read?
The value was “Compound metabolized”.

Conditions: human gut metagenome, 24 h, 2 µM
Remark: another data set of the same source

With `CC(C)(C)NCC(O)c1cc(Cl)c(N)c(Cl)c1` (stereo not given) [CLENBUTEROL] as the compound, how does the “Bacterial Biotransformation” value read?
Its value is “Compound NOT metabolized”.

Which “Bacterial Biotransformation” value does the source give for `C[N+]12CCC(CC1)C(OC(=O)C(O)(c1ccccc1)c1ccccc1)C2.[Br-]` (stereo not given) [CLIDINIUM BROMIDE] here?
The value was “Compound NOT metabolized”.

Conditions: human gut metagenome, 24 h, 2 µM
Remark: another data set of the same source

For `CC(C)(C)NCC(O)c1cc(Cl)c(N)c(Cl)c1` (stereo not given) [CLENBUTEROL], which “Bacterial Biotransformation” value is on record?
The value was “Compound NOT metabolized”.

Which “Bacterial Biotransformation” value does the source give for `C[N+]12CCC(CC1)C(OC(=O)C(O)(c1ccccc1)c1ccccc1)C2.[Br-]` (stereo not given) [CLIDINIUM BROMIDE] here?
The value was “Compound NOT metabolized”.

Conditions: human gut metagenome, 24 h, 2 µM
Remark: another data set of the same source

For `CC(C)(C)NCC(O)c1cc(Cl)c(N)c(Cl)c1` (stereo not given) [CLENBUTEROL], which “Bacterial Biotransformation” value is on record?
Its value is “Compound NOT metabolized”.

For `C[N+]12CCC(CC1)C(OC(=O)C(O)(c1ccccc1)c1ccccc1)C2.[Br-]` (stereo not given) [CLIDINIUM BROMIDE], which “Bacterial Biotransformation” value is on record?
The value was “Compound NOT metabolized”.

Conditions: human gut metagenome, 24 h, 2 µM
Remark: another data set of the same source

Which “Bacterial Biotransformation” value does the source give for `CC(C)(C)NCC(O)c1cc(Cl)c(N)c(Cl)c1` (stereo not given) [CLENBUTEROL] here?
Its value is “Compound NOT metabolized”.

For `C[N+]12CCC(CC1)C(OC(=O)C(O)(c1ccccc1)c1ccccc1)C2.[Br-]` (stereo not given) [CLIDINIUM BROMIDE], which “Bacterial Biotransformation” value is on record?
Its value is “Compound metabolized”.
